From patent publication US5571836A, “Viral attachment inhibitors” (priority 1995, dated 1996)
Where a name gives a salt, the structure may show the parent alone.

Key:
[1] = Stability of compound (observation); assay type: physicochemical; conditions: must be used immediately in coupling with polymer
[2] = tested on: influenza virus USSR/90/77; assay: Fetuin binding inhibition assay, influenza virus USSR/90/77; conditions: for A^i (absorbance): 492 nm
[3] = tested on: influenza virus Chile/1/83; assay: Fetuin binding inhibition assay, influenza virus Chile/1/83; conditions: for A^i (absorbance): 492 nm
[4] = tested on: influenza virus Taiwan/1/86; assay: Fetuin binding inhibition assay, influenza virus Taiwan/1/86; conditions: for A^i (absorbance): 492 nm
influenza virus X-31 = assay: Fetuin binding inhibition assay, influenza virus X-31; conditions: for A^i (absorbance): 492 nm
[5] = tested on: influenza virus England/321/77; assay: Fetuin binding inhibition assay, influenza virus England/321/77; conditions: for A^i (absorbance): 492 nm
[6] = tested on: influenza virus USSR/2/85; assay: Fetuin binding inhibition assay, influenza virus USSR/2/85; conditions: for A^i (absorbance): 492 nm
[7] = tested on: influenza virus USSR/3/85; assay: Fetuin binding inhibition assay, influenza virus USSR/3/85; conditions: for A^i (absorbance): 492 nm
[8] = tested on: influenza virus B/Hong Kong/8/73; assay: Fetuin binding inhibition assay, influenza virus B/Hong Kong/8/73; conditions: for A^i (absorbance): 492 nm
[9] = tested on: influenza virus B/Singapore/222/79; assay: Fetuin binding inhibition assay, influenza virus B/Singapore/222/79; conditions: for A^i (absorbance): 492 nm
[10] = tested on: influenza virus B/USSR/100/83; assay: Fetuin binding inhibition assay, influenza virus B/USSR/100/83; conditions: for A^i (absorbance): 492 nm
[11] = tested on: influenza virus Port Chalmers/1/73; assay: Fetuin binding inhibition assay, influenza virus Port Chalmers/1/73; conditions: for A^i (absorbance): 492 nm
[12] = tested on: influenza virus Victoria/3/75; assay: Fetuin binding inhibition assay, influenza virus Victoria/3/75; conditions: for A^i (absorbance): 492 nm
[13] = tested on: influenza virus Texas/1/77; assay: Fetuin binding inhibition assay, influenza virus Texas/1/77; conditions: for A^i (absorbance): 492 nm
[14] = tested on: influenza virus Philippines/2/82; assay: Fetuin binding inhibition assay, influenza virus Philippines/2/82; conditions: for A^i (absorbance): 492 nm
[15] = molecular target: Vibrio cholerae neuraminidase (Vibrio cholerae, UniProt P0C6E9); assay: Neuraminidase cleavage (resistance), TLC analysis; assay type: biochemical; conditions: 37° C., 450 U/ml, pH 5.6; compared with compound (IV)
Method: (§1) Compound (IV) was incubated at 37° C. with Vibrio cholerae neuraminidase (450 U/ml) in 0.1M acetate buffer, pH 5.6, containing 0.9% NaCi and 0.1% CaCl2. Neuraminidase cleavage was determined on aliquots taken at intervals by TLC analysis (Merck silica gel plates in propanol/ethanol/25% aqueous ammonia, 2:2:1). Spots were developed by charring the plates with 3% H3 PO4 at 150° C. and quantitated densitometrically. The results are depicted in The FIGURE (v).

[16] = assay type: physicochemical; conditions: control solutions without enzyme
Method: as §1

[17] = tested on: influenza virus hemagglutinin; conditions: prior art; cited from earlier work
neuraminidase = conditions: prior art; cited from earlier work

Vibrio cholerae neuraminidase, sequence (P0C6E9 25-781): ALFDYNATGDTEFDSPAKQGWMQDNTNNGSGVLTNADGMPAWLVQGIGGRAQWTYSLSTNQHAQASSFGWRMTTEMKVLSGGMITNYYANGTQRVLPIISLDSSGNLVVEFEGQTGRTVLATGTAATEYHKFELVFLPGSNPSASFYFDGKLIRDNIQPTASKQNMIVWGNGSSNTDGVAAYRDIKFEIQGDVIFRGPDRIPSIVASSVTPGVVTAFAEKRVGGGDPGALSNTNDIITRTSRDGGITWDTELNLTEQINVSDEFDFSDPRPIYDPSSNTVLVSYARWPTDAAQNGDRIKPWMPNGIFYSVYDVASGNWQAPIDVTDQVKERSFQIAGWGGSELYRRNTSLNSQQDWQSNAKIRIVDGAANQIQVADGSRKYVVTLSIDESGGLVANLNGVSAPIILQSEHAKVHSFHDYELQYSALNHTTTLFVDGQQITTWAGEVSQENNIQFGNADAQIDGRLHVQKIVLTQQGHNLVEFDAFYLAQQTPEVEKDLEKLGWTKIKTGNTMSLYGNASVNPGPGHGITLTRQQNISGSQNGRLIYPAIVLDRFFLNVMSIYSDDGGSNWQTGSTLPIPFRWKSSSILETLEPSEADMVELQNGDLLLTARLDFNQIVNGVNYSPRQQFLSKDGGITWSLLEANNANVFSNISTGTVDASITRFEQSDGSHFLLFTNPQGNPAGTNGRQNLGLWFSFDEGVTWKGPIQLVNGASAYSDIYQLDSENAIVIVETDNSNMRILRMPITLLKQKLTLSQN

## CC(=S)NC1C(O)CC(OCc2ccc(NC(=S)CN)cc2)(C(=O)O)OC1C(O)C(O)CO [VIII, p-thioglycylamidobenzyl 3,5-dideoxy-5-thioacetamido-α-D-glycero-D-galacto-nonulopyranosidonic acid]
[1]
  Stability: unstable

## CC(=O)NC1C(O)CC(OCc2ccccc2)(C(=O)O)OC1C(O)C(O)CO [IX, benzyl 5-acetamido-3,5-dideoxy-α-D-glycero-D-galacto-nonulopyranosidonic acid (sodium salt), reference compound]
[2]; 1.28 mM sialoside
  -lgKd(i): 2.8
  A^i (absorbance): 0.6
[2]; .16 mM sialoside
  -lgKd(i): 3.1
  A^i (absorbance): 0.8
[2]; .32 mM sialoside
  -lgKd(i): 3.1
  A^i (absorbance): 0.7
[2]; mean over concentrations
  -lgKd ± SD: 3.0 ± 0.17
[3]; 1.28 mM sialoside
  -lgKd(i): 3.4
  A^i (absorbance): 0.42
[3]; .16 mM sialoside
  -lgKd(i): 3.2
  A^i (absorbance): 0.9
[3]; .32 mM sialoside
  -lgKd(i): 3.4
  A^i (absorbance): 0.72
[3]; .64 mM sialoside
  -lgKd(i): 3.3
  A^i (absorbance): 0.62
[3]; mean over concentrations
  -lgKd ± SD: 3.3 ± 0.1
[4]; 1.28 mM sialoside
  -lgKd(i): 3.0
  A^i (absorbance): 0.22
[4]; .32 mM sialoside
  -lgKd(i): 2.8
  A^i (absorbance): 0.36
[4]; .64 mM sialoside
  -lgKd(i): 2.9
  A^i (absorbance): 0.31
[4]; mean over concentrations
  -lgKd ± SD: 2.9 ± 0.1
Influenza virus X-31; 1.28 mM sialoside
  -lgKd(i): 2.8
  A^i (absorbance): 0.66
Influenza virus X-31; .32 mM sialoside
  -lgKd(i): 3.1
  A^i (absorbance): 0.86
Influenza virus X-31; .64 mM sialoside
  -lgKd(i): 2.7
  A^i (absorbance): 0.84
Influenza virus X-31; mean over concentrations
  -lgKd ± SD: 2.9 ± 0.21
[5]; .08 mM sialoside
  -lgKd(i): 4.4
  A^i (absorbance): 0.49
[5]; .16 mM sialoside
  -lgKd(i): 4.6
  A^i (absorbance): 0.21
[5]; .32 mM sialoside
  -lgKd(i): 4.5
  A^i (absorbance): 0.13
[5]; .64 mM sialoside
  -lgKd(i): 4.8
  A^i (absorbance): 0.04
[5]; mean over concentrations
  -lgKd ± SD: 4.5 ± 0.1
[6]; 1.28 mM sialoside
  -lgKd(i): 3.5
  A^i (absorbance): 0.12
[6]; .32 mM sialoside
  -lgKd(i): 3.1
  A^i (absorbance): 0.32
[6]; .64 mM sialoside
  -lgKd(i): 3.3
  A^i (absorbance): 0.25
[6]; mean over concentrations
  -lgKd ± SD: 3.3 ± 0.2
[7]; 1.28 mM sialoside
  -lgKd(i): 4.5
  A^i (absorbance): 0.06
[7]; .08 mM sialoside
  -lgKd(i): 4.5
  A^i (absorbance): 0.5
[7]; .16 mM sialoside
  -lgKd(i): 4.6
  A^i (absorbance): 0.28
[7]; .32 mM sialoside
  -lgKd(i): 4.6
  A^i (absorbance): 0.16
[7]; .64 mM sialoside
  -lgKd(i): 4.6
  A^i (absorbance): 0.08
[7]; mean over concentrations
  -lgKd ± SD: 4.6 ± 0.05
[8]; 1.28 mM sialoside
  -lgKd(i): 3.0
  A^i (absorbance): 0.32
[8]; .32 mM sialoside
  -lgKd(i): 2.7
  A^i (absorbance): 0.55
[8]; .64 mM sialoside
  -lgKd(i): 2.8
  A^i (absorbance): 0.48
[8]; mean over concentrations
  -lgKd ± SD: 2.8 ± 0.15
[9]; 1.28 mM sialoside
  -lgKd(i): 3.4
  A^i (absorbance): 0.39
[9]; .16 mM sialoside
  -lgKd(i): 3.4
  A^i (absorbance): 0.85
[9]; .32 mM sialoside
  -lgKd(i): 3.3
  A^i (absorbance): 0.76
[9]; .64 mM sialoside
  -lgKd(i): 3.2
  A^i (absorbance): 0.65
[9]; mean over concentrations
  -lgKd ± SD: 3.3 ± 0.1
[10]; 1.28 mM sialoside
  -lgKd(i): 3.1
  A^i (absorbance): 0.9
[10]; .16 mM sialoside
  -lgKd(i): 3.6
  A^i (absorbance): 1.2
[10]; .32 mM sialoside
  -lgKd(i): 3.6
  A^i (absorbance): 1.0
[10]; mean over concentrations
  -lgKd ± SD: 3.4 ± 0.3
[11]; 1.60 mM sialoside
  -lgKd(i): 3.4
  A^i (absorbance): 0.20
[11]; .05 mM sialoside
  -lgKd(i): 3.7
  A^i (absorbance): 0.51
[11]; .10 mM sialoside
  -lgKd(i): 4.1
  A^i (absorbance): 0.36
[11]; .20 mM sialoside
  -lgKd(i): 3.8
  A^i (absorbance): 0.36
[11]; .40 mM sialoside
  -lgKd(i): 3.6
  A^i (absorbance): 0.33
[11]; .80 mM sialoside
  -lgKd(i): 3.5
  A^i (absorbance): 0.28
[11]; mean over concentrations
  -lgKd ± SD: 3.7 ± 0.3
[12]; 1.60 mM sialoside
  -lgKd(i): 4.2
  A^i (absorbance): 0.09
[12]; .05 mM sialoside
  -lgKd(i): 4.0
  A^i (absorbance): 0.64
[12]; .10 mM sialoside
  -lgKd(i): 4.0
  A^i (absorbance): 0.58
[12]; .20 mM sialoside
  -lgKd(i): 4.05
  A^i (absorbance): 0.45
[12]; .40 mM sialoside
  -lgKd(i): 4.1
  A^i (absorbance): 0.31
[12]; .80 mM sialoside
  -lgKd(i): 4.2
  A^i (absorbance): 0.16
[12]; mean over concentrations
  -lgKd ± SD: 4.1 ± 0.08
[13]; 1.60 mM sialoside
  -lgKd(i): 5.1
  A^i (absorbance): 0.04
[13]; .05 mM sialoside
  -lgKd(i): 4.8
  A^i (absorbance): 0.77
[13]; .10 mM sialoside
  -lgKd(i): 4.9
  A^i (absorbance): 0.55
[13]; .20 mM sialoside
  -lgKd(i): 5.0
  A^i (absorbance): 0.30
[13]; .40 mM sialoside
  -lgKd(i): 4.9
  A^i (absorbance): 0.20
[13]; .80 mM sialoside
  -lgKd(i): 5.0
  A^i (absorbance): 0.09
[13]; mean over concentrations
  -lgKd ± SD: 5.0 ± 0.1
[14]; .05 mM sialoside
  -lgKd(i): 5.2
  A^i (absorbance): 0.35
[14]; .10 mM sialoside
  -lgKd(i): 5.3
  A^i (absorbance): 0.18
[14]; .20 mM sialoside
  -lgKd(i): 5.4
  A^i (absorbance): 0.08
[14]; .40 mM sialoside
  -lgKd(i): 5.4
  A^i (absorbance): 0.05
[14]; .80 mM sialoside
  -lgKd(i): 5.3
  A^i (absorbance): 0.03
[14]; mean over concentrations
  -lgKd ± SD: 5.3 ± 0.08
[15]
  Neuraminidase cleavage: cleaved much more rapidly
[16]
  Stability in the absence of enzyme: at least 23 hours
[17]
  Inhibition of attachment: shows greater inhibition of attachment than 5-acetyl neuraminic acid itself
neuraminidase
  Susceptibility to neuraminidase cleavage: not immune to this cleavage
